Experiments:
[1] = xn = mol fraction of the nth substance listed; conditions: for surface tension liquid-gas: Ring tensiometer; for viscosity / speed of sound / mass density: 101 kPa, Liquid; for viscosity: Capillary tube (Ostwald / Ubbelohde) method; for speed of sound: Sing-around technique in a fixed-path interferometer; for mass density: Vibrating tube method
[2] = refractive index (Na D-line) (dimensionless); xn = mol fraction of the nth substance listed; conditions: 101 kPa, Liquid, Standard Abbe refractometry

C[C@H](O)CN [(2S)-1-amino-2-propanol] + CN1CCCC1=O
Conditions | mass density, [1] [kg/m3] | refractive index, [2] | speed of sound, [1] [m/s] | surface tension liquid-gas, [1] [mN/m] | viscosity, [1] [mPa·s]
293.15 K, x2 = 0 | 960.8 | 1.448 | 1560.8 | 37.6 | 31.67
293.15 K, x2 = 0.1034 | 968.2 | 1.4503 | 1553.5 | 38.1 | 18.96
293.15 K, x2 = 0.2008 | 975.3 | 1.4523 | 1549.1 | 38.5 | 12.72
293.15 K, x2 = 0.3001 | 982.8 | 1.4545 | 1547.5 | 39 | 8.746
293.15 K, x2 = 0.4002 | 989.5 | 1.4567 | 1546 | 39.5 | 7.694
293.15 K, x2 = 0.4978 | 996.5 | 1.4585 | 1546.2 | 40 | 6.542
293.15 K, x2 = 0.5943 | 1003.3 | 1.4607 | 1547.4 | 40.7 | 5.578
293.15 K, x2 = 0.7 | 1010.9 | 1.4632 | 1550.9 | 41.2 | 4.249
293.15 K, x2 = 0.7993 | 1018.1 | 1.4655 | 1554.8 | 41.5 | 3.533
293.15 K, x2 = 0.8913 | 1025 | 1.4675 | 1559.4 | 42.1 | 3.098
303.15 K, x2 = 0 | 952.8 | 1.4442 | 1528.3 | 36.9 | 17.71
303.15 K, x2 = 0.1034 | 960 | 1.4464 | 1519.6 | 37.3 | 11.49
303.15 K, x2 = 0.2008 | 966.9 | 1.4484 | 1514.7 | 37.8 | 8.051
303.15 K, x2 = 0.3001 | 974.2 | 1.4505 | 1511.8 | 38.3 | 5.78
303.15 K, x2 = 0.4002 | 980.8 | 1.4527 | 1510 | 38.8 | 5.21
303.15 K, x2 = 0.4978 | 987.7 | 1.4547 | 1509.4 | 39.2 | 4.723
303.15 K, x2 = 0.5943 | 994.5 | 1.4567 | 1510.3 | 39.5 | 4.271
303.15 K, x2 = 0.7 | 1002 | 1.4591 | 1512.8 | 40.1 | 3.395
303.15 K, x2 = 0.7993 | 1009.2 | 1.4614 | 1516.8 | 40.7 | 2.909
303.15 K, x2 = 0.8913 | 1016.1 | 1.4635 | 1520.6 | 41 | 2.576
313.15 K, x2 = 0 | 944.7 | 1.4401 | 1495.7 | 36.3 | 10.65
313.15 K, x2 = 0.1034 | 951.7 | 1.4423 | 1486 | 36.8 | 7.301
313.15 K, x2 = 0.2008 | 958.4 | 1.4445 | 1480.5 | 37.3 | 5.308
313.15 K, x2 = 0.3001 | 965.6 | 1.4464 | 1476.6 | 37.7 | 4.045
313.15 K, x2 = 0.4002 | 972.1 | 1.4488 | 1474.8 | 38.1 | 3.725
313.15 K, x2 = 0.4978 | 978.8 | 1.4506 | 1472.8 | 38.7 | 3.448
313.15 K, x2 = 0.5943 | 985.6 | 1.4528 | 1473.5 | 39 | 3.375
313.15 K, x2 = 0.7 | 993.1 | 1.4548 | 1475.4 | 39.5 | 2.775
313.15 K, x2 = 0.7993 | 1000.3 | 1.4572 | 1479.1 | 40.2 | 2.458
313.15 K, x2 = 0.8913 | 1007.2 | 1.4594 | 1482.6 | 40.4 | 2.168
323.15 K, x2 = 0 | 936.5 | 1.436 | 1462.9 | 35.9 | 6.961
323.15 K, x2 = 0.1034 | 943.2 | 1.4382 | 1452.1 | 36.2 | 4.793
323.15 K, x2 = 0.2008 | 949.8 | 1.4401 | 1446 | 36.6 | 3.499
323.15 K, x2 = 0.3001 | 956.9 | 1.4421 | 1441.6 | 37.1 | 2.939
323.15 K, x2 = 0.4002 | 963.3 | 1.4442 | 1440.5 | 37.6 | 2.649
323.15 K, x2 = 0.4978 | 969.9 | 1.4464 | 1436.8 | 38 | 2.438
323.15 K, x2 = 0.5943 | 976.7 | 1.4482 | 1436.8 | 38.4 | 2.731
323.15 K, x2 = 0.7 | 984.2 | 1.4506 | 1438.4 | 38.8 | 2.317
323.15 K, x2 = 0.7993 | 991.4 | 1.4529 | 1441.7 | 39.2 | 2.073
323.15 K, x2 = 0.8913 | 998.2 | 1.4552 | 1445.1 | 39.5 | 1.861

CC(O)CNCC(C)O (stereo not given) [N-(2-hydroxypropyl)-2-hydroxy-1-propanamine] + CN1CCCC1=O
Conditions | mass density, [1] [kg/m3] | refractive index, [2] | speed of sound, [1] [m/s] | surface tension liquid-gas, [1] [mN/m] | viscosity, [1] [mPa·s]
293.15 K, x2 = 0.7804 | 1021.9 | 1.4675 | 1535.6 | 39.7 | 4.857
293.15 K, x2 = 0.8882 | 1026.8 | 1.4682 | 1548.8 | 41.3 | 2.943
303.15 K, x2 = 0.4695 | 1006 | 1.4608 | 1483.8 | 37.1 | 20.25
303.15 K, x2 = 0.5721 | 1007.3 | 1.4616 | 1486.6 | 37.6 | 10.57
303.15 K, x2 = 0.6754 | 1010.8 | 1.4623 | 1494.7 | 38.3 | 6.229
303.15 K, x2 = 0.7804 | 1013.4 | 1.4635 | 1499.4 | 39 | 3.694
303.15 K, x2 = 0.8882 | 1018.2 | 1.4648 | 1511.9 | 40 | 2.371
313.15 K, x2 = 0.2764 | 993.1 | 1.4558 | 1443.5 | 36 | 38.27
313.15 K, x2 = 0.3733 | 994.5 | 1.4563 | 1445 | 36.2 | 21.14
313.15 K, x2 = 0.4695 | 997.8 | 1.4567 | 1450.8 | 36.7 | 11.24
313.15 K, x2 = 0.5721 | 998.9 | 1.4576 | 1453.3 | 37.2 | 7.051
313.15 K, x2 = 0.6754 | 1002.3 | 1.4582 | 1460.3 | 37.9 | 4.495
313.15 K, x2 = 0.7804 | 1004.8 | 1.4594 | 1463.7 | 38.5 | 2.89
313.15 K, x2 = 0.8882 | 1009.4 | 1.4607 | 1474.9 | 39.5 | 1.943
323.15 K, x2 = 0 | 984.1 | 1.4512 | 1420.3 | 34.5 | 125.73
323.15 K, x2 = 0.1049 | 984 | 1.451 | 1414.2 | 34.9 | 61.14
323.15 K, x2 = 0.1898 | 984.4 | 1.4511 | 1411.8 | 35.1 | 35.41
323.15 K, x2 = 0.2764 | 985.1 | 1.452 | 1412.2 | 35.1 | 20.93
323.15 K, x2 = 0.3733 | 986.4 | 1.4524 | 1413 | 35.3 | 12.67
323.15 K, x2 = 0.4695 | 988.2 | 1.4528 | 1415.4 | 36 | 7.412
323.15 K, x2 = 0.5721 | 990.6 | 1.4535 | 1419.6 | 36.5 | 5.022
323.15 K, x2 = 0.6754 | 993.5 | 1.4541 | 1424.3 | 37.1 | 3.42
323.15 K, x2 = 0.7804 | 996.8 | 1.4553 | 1428.6 | 37.7 | 2.33
323.15 K, x2 = 0.8882 | 1000.7 | 1.4565 | 1438.7 | 38.7 | 1.631

Source: the NIST ThermoML archive (doi:10.1021/je200121f)
